Measurements taken from US9005633B2 (priority 2009, dated 2015).
Where two headings read alike, the source gives them in different places.

Legend:
Details in all cases: 10 ug/ml AMT, 200 mW/cm2 UV-A
YF (FMD 1240) = assay type: cell-based, Yellow Fever (YF)
[1] = test system: WNV (CDC) M29539 (NY99-35262-11); assay: AMT photo-inactivation of arbovirus: West Nile Virus; assay type: cell-based, West Nile Virus (WNV)
SLE TBH-28 CDC M29777 = assay: AMT photo-inactivation of arbovirus: Saint Louis Encephalitis; assay type: cell-based, Saint Louis Encephalitis (SLE)
VEE TC 83 TVB 5215 = assay type: cell-based, Venezuelan Equine Encephalitis (VEE)

Cc1oc2c(C)c3oc(=O)cc(C)c3cc2c1CN.Cl [AMT, 4′-Aminomethyltrioxsalen hydrochloride]
YF (FMD 1240) titer after AMT and UV-A (YF (FMD 1240); 0 minutes): 1.47E+05 PFU/ml
YF (FMD 1240) titer after AMT and UV-A (YF (FMD 1240); 1 minute): 3.68E+04 PFU/ml
YF (FMD 1240) titer after AMT and UV-A (YF (FMD 1240); 5 minutes): 9.00E+01 PFU/ml
YF (FMD 1240) titer after AMT and UV-A (YF (FMD 1240); 10 minutes): 0 PFU/ml
YF (FMD 1240) titer after AMT and UV-A (YF (FMD 1240); 20 minutes): 0 PFU/ml
WNV (CDC) M29539 (NY99-35262-11) titer after AMT and UV-A ([1]; 0 minutes): 8.00E+04 PFU/ml
WNV (CDC) M29539 (NY99-35262-11) titer after AMT and UV-A ([1]; 1 minute): 1.68E+04 PFU/ml
WNV (CDC) M29539 (NY99-35262-11) titer after AMT and UV-A ([1]; 5 minutes): 5.00E+01 PFU/ml
WNV (CDC) M29539 (NY99-35262-11) titer after AMT and UV-A ([1]; 10 minutes): 0 PFU/ml
WNV (CDC) M29539 (NY99-35262-11) titer after AMT and UV-A ([1]; 20 minutes): 0 PFU/ml
SLE TBH-28 CDC M29777 titer after AMT and UV-A (SLE TBH-28 CDC M29777; 0 minutes): 3.20E+03 PFU/ml
SLE TBH-28 CDC M29777 titer after AMT and UV-A (SLE TBH-28 CDC M29777; 1 minute): 8.00E+01 PFU/ml
SLE TBH-28 CDC M29777 titer after AMT and UV-A (SLE TBH-28 CDC M29777; 5 minutes): 0 PFU/ml
SLE TBH-28 CDC M29777 titer after AMT and UV-A (SLE TBH-28 CDC M29777; 10 minutes): 0 PFU/ml
SLE TBH-28 CDC M29777 titer after AMT and UV-A (SLE TBH-28 CDC M29777; 20 minutes): 0 PFU/ml
VEE TC 83 TVB 5215 titer after AMT and UV-A (VEE TC 83 TVB 5215; 0 minutes): 1.72E+09 PFU/ml
VEE TC 83 TVB 5215 titer after AMT and UV-A (VEE TC 83 TVB 5215; 1 minute): 1.60E+08 PFU/ml
VEE TC 83 TVB 5215 titer after AMT and UV-A (VEE TC 83 TVB 5215; 5 minutes): 4.80E+04 PFU/ml
VEE TC 83 TVB 5215 titer after AMT and UV-A (VEE TC 83 TVB 5215; 10 minutes): 1.50E+02 PFU/ml
VEE TC 83 TVB 5215 titer after AMT and UV-A (VEE TC 83 TVB 5215; 20 minutes): 0 PFU/ml
